Values of other authors, collected in PMC9686322 (Frontiers in Neurology, 2022).

How the values were obtained:
[1] = parameters: method as in PMID 15956161, PMID 10626097, PMID 21080186
[2] = parameters: method as in PMID 29847694

- Plasma half-life [2]: 1.5 to 2.5 h
Structure (SMILES): N[C@@H](Cc1ccc(O)c(O)c1)C(=O)O [levodopa]
- Threshold plasma concentration to achieve sustained relief of PD symptoms [1]: about 1,000 ng/ml
